# Test results published in publication PMC10007777, “Glycyrrhizic acid inhibits myeloid differentiation of hematopoietic stem cells by binding S100 calcium binding protein A8 to improve cognition in aged mice” (Immunity & Ageing : I & A, 2023).
# Molecular target: T1, S100A8 protein (S100 calcium binding protein A8; MRP-8) (Mus musculus, UniProt P27005)
# T1 construct: amine-coupled to CM5 (COOH) chip
# T1 sequence (P27005 2-89): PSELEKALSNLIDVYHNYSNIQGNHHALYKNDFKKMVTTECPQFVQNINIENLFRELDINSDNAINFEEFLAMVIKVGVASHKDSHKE
# Test: SPR (BIAcore […]), S100A8 immobilized
# Conditions: 20 mM Tris-HCl, 150 mM NaCl, 1 mM TCEP, pH 7.2, 25 C; GA 0-500 uM
compound,measurement,value
"CC1(C)[C@@H](O[C@H]2O[C@H](C(=O)O)[C@@H](O)[C@H](O)[C@H]2O[C@@H]2O[C@H](C(=O)O)[C@@H](O)[C@H](O)[C@H]2O)CC[C@]2(C)[C@H]3C(=O)C=C4[C@@H]5C[C@@](C)(C(=O)O)CC[C@]5(C)CC[C@@]4(C)[C@]3(C)CC[C@@H]12 [GA, Glycyrrhizic acid]",binding (SPR),The experimental results show binding between GA and S100A8 protein (Fig. 5E).
